Values quoted from earlier work, collected in PMC6317935 (ChemistryOpen, 2018).

test system: FXR; settings: read-out: EC50 (FXR agonist)

Structure (SMILES) | EC50
COC(=O)/C=C/c1cccc(N(Cc2ccc(-c3ccc(N(C)C)cc3)cc2)C(=O)C2CCCCC2)c1 [Compound 3, Fexaramine] | 25 nM
CC(C)OC(=O)C1=CN(C(=O)c2ccc(F)c(F)c2)CC(C)(C)c2c1[nH]c1ccccc21 [Compound 4, WAY‐362450] | 4 nM
